Structures are written as SMILES.

The nature of data set [1]: Electro-oxidation/reduction of species at indium tin oxide electrode (voltammetry). The data set is classed as physicochemical. The source says: FIG. 7B: Cyclic voltammetric study of the oxidation of Ascorbic acid test in ITO electrodes. Current increase around 0.25V indicates the start of oxidation at ITO electrodes.
Electrode material used: The electrode material was indium tin oxide. This is a semiconducting electrode surface with very large potential window in an aqueous solution.
Oxidation of ascorbic acid at the electrode surfaces produced H^+ ions and changed the electrode surface pH to a more acidic state: AH2→A+2H^++2e^−, where AH2 is ascorbic acid ([…]) (as shown in FIG. 5). The electrode potential at which it oxidizes was less than 0.5V for Indium tin oxide material vs Ag/AgCl reference electrode (as shown in FIG. 7). This potential was less than the voltages needed for the oxygen evolution reaction in aqueous solution. Higher electrode potential (e.g. >1V for ITO electrodes in just phosphate buffer) can damage the PEG layer (as shown in FIG. 8). The ascorbic acid also acted as a sacrificial species to prevent electrochemical degradation of the surface chemistry.
Reduction of benzoquinone (C6H4O2) into Hydroquinone (C6H6O2) can produce OH− ions at −0.1V: BQ+2e^−+2H2O→HQ+2OH^− This reduction reaction increased the pH at the electrode interface.

For data set [2], the target named is Green Fluorescent Protein (GFP) (Aequorea victoria, UniProt P42212). As to the kind of experiment: GFP fluorescence intensity after incubation with benzoquinones (protein stability). It is filed as biochemical. To be noted: 0.5 mM benzoquinone, phosphate buffered saline, 30 min. An excerpt:
Para-benzoquinones and ortho-benzoquinones (compounds 2, 4, 6, and 9 in FIG. 22) are susceptible to nucleophilic attack at the double bond of the ring (positions 2, 3, 5 and 6 in structure 2 of FIG. 22, positions 3, 4, 5 and 6 in structure 4 of FIG. 22, and positions 2 and 3 in structure 6 of FIG. 22). Introducing substituents at some or all of those positions can mitigate the problem of nucleophilic attack. For example, 1,4-benzoquinone (structure 2 in FIG. 22, where R1, R2, R3 and R4 are H) undergoes Michael addition reaction with amino groups of proteins (Loomis et al., Phytochemistry, 5, 423, (1966) and U.S. Pat. No. 6,753,312 B2). […] Fluorescence intensity of Green Fluorescent Protein (GFP) was measured after incubation with three different benzoquinones in phosphate buffered saline for 30 min (concentration of benzoquinones was 0.5 mM). The difference in fluorescence intensity indicates the varied effect that the different substitutions in benzoquinones have on the stability of GFP. Fluorescence intensity of GFP is indicative of its structural integrity. Losses in fluorescence intensity usually indicate loss of its tertiary structure (protein denaturation) (Yin D. X., Zhu L., Schimke R. T. Anal. Biochem. 1996, 235:195-201).

In the case of `O=C1O[C@H]([C@@H](O)CO)C(O)=C1O` [ascorbic acid], the “start of oxidation (current increase), cyclic voltammetry” value in data set [1] (ITO electrodes) is reported as “around 0.25 V”. In addition, the “electrode potential at which it oxidizes” value in data set [1] (Indium tin oxide vs Ag/AgCl reference electrode) was “less than 0.5 V”.

Regarding `O=C1C=CC(=O)C=C1` [unsubstituted benzoquinone, 1,4-benzoquinone], the “potential of reduction into hydroquinone producing OH- ions” value in data set [1] was −0.1 V. In addition, the “loss in GFP fluorescence intensity” value in data set [2] is listed as 25%.

Source of the values: patent publication US11867660B2, “Electronic control of the pH of a solution close to an electrode surface” (Robert Bosch GmbH, priority 2015, dated 2024).
